8 molecules from article PMC5629628, “The development of activatable lytic peptides for targeting triple negative breast cancer” (Cell Death Discovery, 2017) can be followed below.

As usually defined, the IC50 is the concentration that inhibits the measured activity by half.

SMILES strings stand for the structures. Where two headings read alike, the source gives them in different places. Non-standard residues stand in square brackets, D forms with d. Residues, ends and D or L forms follow the SMILES beside them. Aib = CC(C)(N)C(=O)O; Ahx = NCCCCCC(=O)O; βAla = NCCC(=O)O

Data set [1] deals with MDA-MB-231. Kind of data set: MTT cell viability, MDA-MB-231. The class given is cell-based, human. To be noted: for IC50: 5% FBS medium, 310 K, mean (standard deviation).
The test system of data set [2] is HeLa. To be noted: read-out: IC50 (μM), HeLa; MTT assay, 24 h treatment, 5% FBS medium, 310 K; mean (standard deviation). On the procedure:
(§1) 100 μl of 4×10^4/ml cell suspension (MDA-MB-231, MCF-7, HeLa, SK-OV-3) was placed in each well of the 96-well culture plate and allowed to grow in dulbecco's modified eagle medium or Leibovitz medium (L-15) supplemented with 10% fetal bovine serum overnight. The cells were incubated with serial dilution of compounds at 310 K in 5% fetal bovine serum containing media for 24 h supplied with 5% CO2. At the end of the compounds exposure, 20 μl of 3-(4,5-dimethyl-2-thiazolyl)-2,5-diphenyl-2-H-tetrazolium bromide reagent was added and incubated at 310 K for 4 h. The absorbance of formazan product was measured at 490 nm by a microplate reader (PerkinElmer, Waltham, MA, USA). Cells without peptide were treated as control. *P<0.05, **P<0.01, ***P<0.001 compared with vehicle-treated cells. In Z-VAD-FMK assays, *P<0.05, **P<0.01, ***P<0.001 compared with cells without treatment of Z-VAD-FMK.

The test system of data set [3] is MCF-7. Conditions: read-out: IC50 (μM), MCF-7; MTT assay, 24 h treatment, 5% FBS medium, 310 K; mean (standard deviation). On the procedure: as §1
(Tetrazolium dyes change colour on reduction, which living cells bring about.)

The subject of data set [4] is SK-OV-3. To be noted: read-out: IC50 (μM), SK-OV-3; MTT assay, 24 h treatment, 5% FBS medium, 310 K; mean (standard deviation). Here is the method:
as §1

The test system of data set [5] is mouse red blood cells. In words: Haemolytic activity. The class given is cell-based. Here is the method:
Fresh mouse red blood cells were collected and centrifuged at 800 rpm for 5 min. The erythrocytes were washed and re suspended in 0.9% NaCl to 10^8/ml. A serial dilution of peptides were added and incubate at 310 K. After 1 h incubation, erythrocytes were centrifuged and the release of hemoglobin was monitored by measuring the absorbance of supernatant at 570 nm by a microplate reader (PerkinElmer).

For data set [6], the system named is MDA-MB-231. Kind of data set: Cell viability with or without caspase inhibitor Z-VAD-FMK. The class given is cell-based, human.
Data set [7] concerns HEK293T. Kind of data set: Cell viability, non-tumourigenic HEK293T. Conditions: 24 h treatment. In kind it is cell-based.
In data set [8] the test system is MDA-MB-231 tumour. Kind of data set: In vivo fluorescence imaging and tissue distribution. Also on record: species or system mice. Conditions: Cy5-labelled peptides, n=2. Here is the method: Four-week-old nude mice were purchased from the Vital River (Beijing, China) and allowed to grow for further two weeks. Approximately 1×10^6 MDA-MB-231 cells were injected into the mammary fat pads of female mice in a vehicle of 4 mg/ml Matrigel (Becton Dickinson and Co., New York, NY, USA). One week later, mice bearing tumours around 50 mm^3 in volume were randomly divided into groups for subsequent experiments.
For optical imaging, mice were anesthetized with isoflurane. Cy5-labelled peptides were injected intravenously at a dose of 100 μl, 50 μM. At each time point, mice were again anesthetized and imaged using IVIS Spectrum Pre-clinical In Vivo Imaging System (640 nm/680 nm). Fluorescence in manually set regions of interest was quantified by Living Image. The contrast ratio was calculated by dividing the tumour fluorescence by the chest and abdomen fluorescence.

Data set [9] deals with nude mice. In words: Acute toxicity in mice. To be noted: 40 mg/kg (200 μl, 4 mg/ml) intravenous, n=3 per group. In kind it is in vivo. Here is the method: In acute toxicity studies, 12 mice were divided into four groups (n=3 for each group) and administered via intravenous injection with peptide (e8-Uk14, e7-Ur11) at the dose of 20 or 40 mg/kg. In chronic renal toxicity studies, mice were administered via intravenous injection with peptide (e8-Uk14, e7-Ur11) at the dose of 20 mg/kg every other day over a periods of 2 weeks.

[10] abbreviates: organs excised 6 h after injection.

Consider `CC(=O)N[C@H](Cc1c[nH]c2ccccc12)C(=O)NCCC(=O)N[C@H](CCCCN)C(=O)N[C@H](CC(C)C)C(=O)NC(C)(C)C(=O)N[C@H](CCCCN)C(=O)N[C@H](CCCCN)C(=O)N[C@H](CC(C)C)C(=O)NC(C)(C)C(=O)N[C@H](CCCCN)C(=O)N[C@H](CC(C)C)C(=O)NC(C)(C)C(=O)N[C@H](CCCCN)C(N)=O` [Uk11] (Ac-[dW][βAla][dK][dL][Aib][dK][dK][dL][Aib][dK][dL][Aib][dK]-NH2), for which the “cytotoxic activity towards MDA-MB-231 cells (in words)” value in data set [1] (MTT assay, 24 h treatment) is given as “decreased efficiency”.
As to `CC(=O)N[C@H](Cc1c[nH]c2ccccc12)C(=O)NCCC(=O)N[C@H](CCCCN)C(=O)N[C@H](CC(C)C)C(=O)NC(C)(C)C(=O)N[C@H](CCCCN)C(=O)N[C@H](CC(C)C)C(=O)NC(C)(C)C(=O)N[C@H](CCCCN)C(=O)N[C@H](CCCCN)C(=O)N[C@H](CC(C)C)C(=O)NC(C)(C)C(=O)N[C@H](CCCCN)C(=O)N[C@H](CC(C)C)C(=O)NC(C)(C)C(=O)N[C@H](CCCCN)C(N)=O` [Uk14] (Ac-[dW][βAla][dK][dL][Aib][dK][dL][Aib][dK][dK][dL][Aib][dK][dL][Aib][dK]-NH2), the IC50 in [1] (MTT assay, 24 h treatment) stood at 4.5 µM; in data set [2] it was 4.8 µM; in data set [3], 4.7 µM; in [4], 5.1 µM. In addition, the haemolytic activity entry in data set [5] is on record as “strong haemolytic activity”. The “effect of caspase inhibitor Z-VAD-FMK on cytotoxic effect” value in [6] is listed as “did not block”.
Take `CC(=O)N[C@H](Cc1c[nH]c2ccccc12)C(=O)NCCC(=O)N[C@H](CC(C)C)C(=O)NC(C)(C)C(=O)N[C@H](CCCNC(=N)N)C(=O)N[C@H](CCCNC(=N)N)C(=O)N[C@H](CC(C)C)C(=O)NC(C)(C)C(=O)N[C@H](CCCNC(=N)N)C(=O)N[C@H](CC(C)C)C(=O)NC(C)(C)C(=O)N[C@H](CCCNC(=N)N)C(N)=O` [Ur10] (Ac-[dW][βAla][dL][Aib][dR][dR][dL][Aib][dR][dL][Aib][dR]-NH2): in [1] (MTT assay, 24 h treatment), the “cytotoxic activity towards MDA-MB-231 cells (in words)” value is on record as “greatly diminished activity”.
`CC(=O)N[C@H](Cc1c[nH]c2ccccc12)C(=O)NCCC(=O)N[C@H](CCCNC(=N)N)C(=O)N[C@H](CC(C)C)C(=O)NC(C)(C)C(=O)N[C@H](CCCNC(=N)N)C(=O)N[C@H](CCCNC(=N)N)C(=O)N[C@H](CC(C)C)C(=O)NC(C)(C)C(=O)N[C@H](CCCNC(=N)N)C(=O)N[C@H](CC(C)C)C(=O)NC(C)(C)C(=O)N[C@H](CCCNC(=N)N)C(N)=O` [Ur11] (Ac-[dW][βAla][dR][dL][Aib][dR][dR][dL][Aib][dR][dL][Aib][dR]-NH2): the “cytotoxic activity towards MDA-MB-231 cells (in words)” value in data set [1] is reported as “no change in activity”. The IC50 in data set [1] (MTT assay, 24 h treatment) was 8.9 µM; in data set [2] it was 5.9 µM; in [3] it was 5.6 µM; in data set [4], 5.1 µM. Besides, in [5], the haemolytic activity result is “strong haemolytic activity”. The “effect of caspase inhibitor Z-VAD-FMK on cytotoxic effect” value in data set [6] is on record as “did not block”.
Consider `CC(=O)N[C@H](Cc1c[nH]c2ccccc12)C(=O)NCCC(=O)N[C@H](CCCNC(=N)N)C(=O)N[C@H](CC(C)C)C(=O)NC(C)(C)C(=O)N[C@H](CCCNC(=N)N)C(=O)N[C@H](CC(C)C)C(=O)NC(C)(C)C(=O)N[C@H](CCCNC(=N)N)C(=O)N[C@H](CCCNC(=N)N)C(=O)N[C@H](CC(C)C)C(=O)NC(C)(C)C(=O)N[C@H](CCCNC(=N)N)C(=O)N[C@H](CC(C)C)C(=O)NC(C)(C)C(=O)N[C@H](CCCNC(=N)N)C(N)=O` [Ur14] (Ac-[dW][βAla][dR][dL][Aib][dR][dL][Aib][dR][dR][dL][Aib][dR][dL][Aib][dR]-NH2), for which, in data set [1] (MTT assay, 24 h treatment), the “cytotoxic activity towards MDA-MB-231 cells (in words)” value was “no significant improvements”.
As for `CC(=O)N[C@H](Cc1c[nH]c2ccccc12)C(=O)NCCC(=O)N[C@H](CCCCN)C(=O)N[C@H](CC(C)C)C(=O)N[C@H](C)C(=O)N[C@H](CCCCN)C(=O)N[C@H](CC(C)C)C(=O)N[C@H](C)C(=O)N[C@H](CCCCN)C(=O)N[C@H](CCCCN)C(=O)N[C@H](CC(C)C)C(=O)N[C@H](C)C(=O)N[C@H](CCCCN)C(=O)N[C@H](CC(C)C)C(=O)N[C@H](C)C(=O)N[C@H](CCCCN)C(N)=O` [ak14], in data set [1] (MTT assay, 24 h treatment), the “cytotoxic activity towards MDA-MB-231 cells (in words)” value is “only moderate efficiency” and the IC50 is above 30 µM.
For `CC(=O)N[C@H](Cc1c[nH]c2ccccc12)C(=O)NCCC(=O)N[C@H](CCC(=O)O)C(=O)N[C@H](CCC(=O)O)C(=O)N[C@H](CCC(=O)O)C(=O)N[C@H](CCC(=O)O)C(=O)N[C@H](CCC(=O)O)C(=O)N[C@H](CCC(=O)O)C(=O)N[C@H](CCC(=O)O)C(=O)N[C@H](CCC(=O)O)C(=O)NCCCCCC(=O)N1CCC[C@H]1C(=O)N[C@@H](CC(C)C)C(=O)NCC(=O)N[C@@H](CC(C)C)C(=O)N[C@@H](C)C(=O)NCC(=O)N[C@H](CCCCN)C(=O)N[C@H](CC(C)C)C(=O)NC(C)(C)C(=O)N[C@H](CCCCN)C(=O)N[C@H](CC(C)C)C(=O)NC(C)(C)C(=O)N[C@H](CCCCN)C(=O)N[C@H](CCCCN)C(=O)N[C@H](CC(C)C)C(=O)NC(C)(C)C(=O)N[C@H](CCCCN)C(=O)N[C@H](CC(C)C)C(=O)NC(C)(C)C(=O)N[C@H](CCCCN)C(N)=O` [e8-Uk14] (Ac-[dW][βAla][dE][dE][dE][dE][dE][dE][dE][dE][Ahx]PLGLAG[dK][dL][Aib][dK][dL][Aib][dK][dK][dL][Aib][dK][dL][Aib][dK]-NH2), the haemolytic activity result in data set [5] (mouse red blood cells 10^8/ml in 0.9% NaCl, 1 h, 310 K, absorbance 570 nm) was “diminished membrane disruption and haemolysis”. For the same molecule, the “cytotoxicity against non-tumourigenic HEK293T” value in data set [7] is recorded as “no obvious cytotoxicity”. Besides, the “tumour accumulation (in vivo fluorescence imaging)” value in [8] (100 μl 50 μM, tail vein, MDA-MB-231 tumour-bearing mice) is reported as “significantly higher accumulation in tumours compared to unmodified peptides”. In data set [8] (setting [10]), the accumulation in kidney entry is “lower accumulation in the kidney”; the accumulation in liver result was “higher accumulation in the liver”; the “uptake in excised tumour” value was “higher compared to UK14 and Ur11”. Also, the “acute toxicity (survival)” value in [9] was “no acute toxicity”.
Regarding `CC(=O)N[C@H](Cc1c[nH]c2ccccc12)C(=O)NCCC(=O)N[C@H](CC(C)C)C(=O)N[C@H](CC(C)C)C(=O)N[C@H](CC(C)C)C(=O)N[C@H](CC(C)C)C(=O)NC(C)(C)C(=O)NC(C)(C)C(=O)NC(C)(C)C(=O)NC(C)(C)C(=O)N[C@H](CCCCN)C(=O)N[C@H](CCCCN)C(=O)N[C@H](CCCCN)C(=O)N[C@H](CCCCN)C(=O)N[C@H](CCCCN)C(=O)N[C@H](CCCCN)C(N)=O` [lUk] (Ac-[dW][βAla][dL][dL][dL][dL][Aib][Aib][Aib][Aib][dK][dK][dK][dK][dK][dK]-NH2), the “cytotoxic activity towards MDA-MB-231 cells (in words)” value in data set [1] (MTT assay, 24 h treatment) is “decreased efficiency”.
